Assay results published in ChEMBL document CHEMBL4152332, “Discovery and synthesis of novel magnolol derivatives with potent anticancer activity in non-small cell lung cancer” (Eur J Med Chem, 2018).
Converted amounts (≈) assume the structure as drawn.

Experiments:
Mus musculus = assay: Toxicity in Balb/c mouse implanted with mouse C26 cells assessed as reduction in body weight at 100 mg/kg, po qd treated for 10 days and measured every 2 days; type: organism-based; conditions: in vivo
NCI-H1650 = assay: Antiproliferative activity against human NCI-H1650 cells after 72 hrs by MTT assay; type: functional, cell-based; conditions: NCI-H1650, 72 h
HUVEC = assay: Antimigratory activity against HUVEC after 24 to 48 hrs by phase contrast/fluorescence microscopic analysis; type: functional, cell-based; conditions: Homo sapiens
HCC827 [1] = assay: Potency index, ratio of IC50 for magnolol to IC50 for test compound for antiproliferative activity against human HCC827 cells after 72 hrs by MTT assay; type: functional
NCI-H1975 [2] = assay: Cell cycle arrest in human NCI-H1975 cells assessed as reduction in accumulation at S phase after 24 hrs by propidium iodide staining-based flow cytometric analysis; type: functional
NCI-H1975 [3] = assay: Cell cycle arrest in human NCI-H1975 cells assessed as increase in accumulation at G0/G1 phase after 24 hrs by propidium iodide staining-based flow cytometric analysis; type: functional
NCI-H1975 [4] = assay: Induction of apoptosis in human NCI-H1975 cells assessed as early apoptotic cells at 10 uM after 48 hrs by annexin V/FITC-propidium iodide staining-based flow cytometric method ( Rvb = 6.09%); type: functional
PC-9 = assay: Antiproliferative activity against human PC9 cells after 72 hrs by MTT assay; type: functional, cell-based; conditions: PC-9, 72 h
NCI-H460 [5] = assay: Potency index, ratio of IC50 for honokiol to IC50 for test compound for antiproliferative activity against human H460 cells after 72 hrs by MTT assay; type: functional
NCI-H1975 [6] = assay: Cell cycle arrest in human NCI-H1975 cells assessed as accumulation at G2/M phase at 20 uM after 24 hrs by propidium iodide staining-based flow cytometric analysis (reference value: 20.11%); type: functional
NCI-H1975 [7] = assay: Cell cycle arrest in human NCI-H1975 cells assessed as accumulation at S phase at 10 uM after 24 hrs by propidium iodide staining-based flow cytometric analysis (reference value: 22.93%); type: functional
NCI-H1975 [8] = assay: Cell cycle arrest in human NCI-H1975 cells assessed as accumulation at G2/M phase at 5 uM after 24 hrs by propidium iodide staining-based flow cytometric analysis (reference value: 20.11%); type: functional
NCI-H441 = assay: Antiproliferative activity against human H441 cells after 72 hrs by MTT assay; type: functional, cell-based; conditions: NCI-H441, 72 h
NCI-H1975 [9] = assay: Induction of apoptosis in human NCI-H1975 cells assessed as viable cells at 20 uM after 48 hrs by annexin V/FITC-propidium iodide staining-based flow cytometric method ( Rvb = 82.5%); type: functional; conditions: NCI-H1975, 48 h, read-out: Activity
NCI-H1975 [10] = assay: Induction of apoptosis in human NCI-H1975 cells assessed as late apoptotic cells at 20 uM after 48 hrs by annexin V/FITC-propidium iodide staining-based flow cytometric method ( Rvb = 10.4%); type: functional
HCC827 [11] = assay: Potency index, ratio of IC50 for honokiol to IC50 for test compound for antiproliferative activity against human HCC827 cells after 72 hrs by MTT assay; type: functional
NCI-H1975 [12] = assay: Induction of apoptosis in human NCI-H1975 cells assessed as viable cells at 10 uM after 48 hrs by annexin V/FITC-propidium iodide staining-based flow cytometric method ( Rvb = 82.5%); type: functional; conditions: NCI-H1975, 48 h, read-out: Activity
NCI-H1975 [13] = assay: Cell cycle arrest in human NCI-H1975 cells assessed as accumulation at G2/M phase at 10 uM after 24 hrs by propidium iodide staining-based flow cytometric analysis (reference value: 20.11%); type: functional
NCI-H460 [14] = assay: Antiproliferative activity against human H460 cells after 72 hrs by MTT assay; type: functional, cell-based; conditions: NCI-H460, 72 h
[15] = Apparent aqueous solubility of the compound by HPLC analysis; type: physicochemical; conditions: aqueous solution
NCI-H1975 [16] = assay: Induction of apoptosis in human NCI-H1975 cells after 48 hrs by annexin V/FITC-propidium iodide staining-based flow cytometric method; type: functional, cell-based
NCI-H1975 [17] = assay: Potency index, ratio of IC50 for magnolol to IC50 for test compound for antiproliferative activity against human NCI-H1975 cells after 72 hrs by MTT assay; type: functional
NCI-H1975 [18] = assay: Cell cycle arrest in human NCI-H1975 cells assessed as accumulation at G0/G1 phase at 10 uM after 24 hrs by propidium iodide staining-based flow cytometric analysis (reference value: 56.11%); type: functional
NCI-H1975 [19] = assay: Induction of apoptosis in human NCI-H1975 cells assessed as necrotic cells at 10 uM after 48 hrs by annexin V/FITC-propidium iodide staining-based flow cytometric method ( Rvb = 1.01%); type: functional
[20] = Antiproliferative activity against human SPC-A1 cells after 72 hrs by MTT assay; type: functional, cell-based; conditions: SPCA1, 72 h
NCI-H1975 [21] = assay: Cell cycle arrest in human NCI-H1975 cells assessed as reduction in accumulation at G2/M phase after 24 hrs by propidium iodide staining-based flow cytometric analysis; type: functional
NCI-H1975 [22] = assay: Induction of apoptosis in human NCI-H1975 cells assessed as late apoptotic cells at 10 uM after 48 hrs by annexin V/FITC-propidium iodide staining-based flow cytometric method ( Rvb = 10.4%); type: functional
A549 = assay: Antiproliferative activity against human A549 cells after 72 hrs by MTT assay; type: functional, cell-based; conditions: A549, 72 h
HCC827 [23] = assay: Antiproliferative activity against human HCC827 cells after 72 hrs by MTT assay; type: functional, cell-based; conditions: HCC827, 72 h
NCI-H1975 [24] = assay: Potency index, ratio of IC50 for honokiol to IC50 for test compound for antiproliferative activity against human NCI-H1975 cells after 72 hrs by MTT assay; type: functional
NCI-H1975 [25] = assay: Induction of apoptosis in human NCI-H1975 cells assessed as late apoptotic cells at 5 uM after 48 hrs by annexin V/FITC-propidium iodide staining-based flow cytometric method ( Rvb = 10.4%); type: functional
NCI-H1975 [26] = assay: Cell cycle arrest in human NCI-H1975 cells assessed as accumulation at S phase at 5 uM after 24 hrs by propidium iodide staining-based flow cytometric analysis (reference value: 22.93%); type: functional
NCI-H1975 [27] = assay: Induction of apoptosis in human NCI-H1975 cells assessed as viable cells at 5 uM after 48 hrs by annexin V/FITC-propidium iodide staining-based flow cytometric method ( Rvb = 82.5%); type: functional; conditions: NCI-H1975, 48 h, read-out: Activity
NCI-H1975 [28] = assay: Cell cycle arrest in human NCI-H1975 cells assessed as accumulation at G0/G1 phase at 5 uM after 24 hrs by propidium iodide staining-based flow cytometric analysis (reference value: 56.11%); type: functional
NCI-H460 [29] = assay: Potency index, ratio of IC50 for magnolol to IC50 for test compound for antiproliferative activity against human H460 cells after 72 hrs by MTT assay; type: functional
NCI-H358 = assay: Antiproliferative activity against human NCI-H358 cells after 72 hrs by MTT assay; type: functional, cell-based; conditions: NCI-H358, 72 h
NCI-H1975 [30] = assay: Induction of apoptosis in human NCI-H1975 cells assessed as necrotic cells at 5 uM after 48 hrs by annexin V/FITC-propidium iodide staining-based flow cytometric method ( Rvb = 1.01%); type: functional
NCI-H1975 [31] = assay: Induction of apoptosis in human NCI-H1975 cells assessed as necrotic cells at 20 uM after 48 hrs by annexin V/FITC-propidium iodide staining-based flow cytometric method ( Rvb = 1.01%); type: functional
NCI-H1975 [32] = assay: Cell cycle arrest in human NCI-H1975 cells assessed as accumulation at S phase at 20 uM after 24 hrs by propidium iodide staining-based flow cytometric analysis (reference value: 22.93%); type: functional
NCI-H1975 [33] = assay: Induction of apoptosis in human NCI-H1975 cells assessed as early apoptotic cells at 5 uM after 48 hrs by annexin V/FITC-propidium iodide staining-based flow cytometric method ( Rvb = 6.09%); type: functional
NCI-H1975 [34] = assay: Antiproliferative activity against human NCI-H1975 cells after 72 hrs by MTT assay; type: functional, cell-based; conditions: NCI-H1975, 72 h
NCI-H1975 [35] = assay: Induction of apoptosis in human NCI-H1975 cells assessed as early apoptotic cells at 20 uM after 48 hrs by annexin V/FITC-propidium iodide staining-based flow cytometric method ( Rvb = 6.09%); type: functional
NCI-H1975 [36] = assay: Cell cycle arrest in human NCI-H1975 cells assessed as accumulation at G0/G1 phase at 20 uM after 24 hrs by propidium iodide staining-based flow cytometric analysis (reference value: 56.11%); type: functional

C=CCc1ccc(O)c(-c2cc(CC=C)cc(CN3CCCC(N)C3)c2O)c1 (stereo not drawn)
Activity (Mus musculus): Toxic
IC50 (NCI-H1650): 6.93 µM
Activity (HUVEC): Dose-dependent effect
Ratio IC50 (HCC827 [1]): 8
Activity (NCI-H1975 [2]): Dose-dependent effect
Activity (NCI-H1975 [3]): Dose-dependent effect
Activity (NCI-H1975 [4]): 6.45%
IC50 (PC-9): 11.4 µM
Ratio IC50 (NCI-H460 [5]): 4
Activity (NCI-H1975 [6]): 13.83%
Activity (NCI-H1975 [7]): 9.26%
Activity (NCI-H1975 [8]): 16.05%
IC50 (NCI-H441): 7.48 µM
viability at 20 µM (NCI-H1975 [9]): 2.02%
Activity (NCI-H1975 [10]): 57%
Ratio IC50 (HCC827 [11]): 4
viability at 10 µM (NCI-H1975 [12]): 64.6%
Activity (NCI-H1975 [13]): 18.21%
IC50 (NCI-H460 [14]): 5.71 µM
solubility [15]: 4080 µg/mL (≈ 10.8 mM)
Activity (NCI-H1975 [16]): Dose-dependent effect
Ratio IC50 (NCI-H1975 [17]): 8
Activity (NCI-H1975 [18]): 70.32%
Activity (NCI-H1975 [19]): 0.65%
IC50 [20]: 8.43 µM
Activity (NCI-H1975 [21]): Dose-dependent effect
Activity (NCI-H1975 [22]): 28.3%
IC50 (A549): 7.46 µM
IC50 (HCC827 [23]): 4.87 µM
Ratio IC50 (NCI-H1975 [24]): 4
Activity (NCI-H1975 [25]): 22.5%
Activity (NCI-H1975 [26]): 16.29%
viability at 5 µM (NCI-H1975 [27]): 69.2%
Activity (NCI-H1975 [28]): 65.67%
Ratio IC50 (NCI-H460 [29]): 8
IC50 (NCI-H358): 9.51 µM
Activity (NCI-H1975 [30]): 0.74%
Activity (NCI-H1975 [31]): 0.38%
Activity (NCI-H1975 [32]): 4.75%
Activity (NCI-H1975 [33]): 7.56%
IC50 (NCI-H1975 [34]): 4.82 µM
Activity (NCI-H1975 [35]): 40.6%
Activity (NCI-H1975 [36]): 79.88%
